The values that follow come from US12433952B2, “Antibody-drug conjugates targeting folate receptor alpha and methods of use” (ZYMEWORKS BC INC., priority 2022, dated 2025).

The structures appear in SMILES notation. Like-named read-outs stand apart in the source and are kept apart here.

Holding throughout (experiment): In vitro cytotoxicity of camptothecin analogues (CellTiter-Glo)
What all share (format): cell-based
Background: ATP-based viability assays read luminescence as a measure of living cells.

The test system of experiment [1] is MDA-MB-468 (breast cancer). The following applies: Homo sapiens, MDA-MB-468, 96 h, read-out: pIC50 MDA-MB-468 (converted). The procedure:
(§1) Cytotoxicity of the camptothecin analogues was assessed in vitro as follows.
(§2) In vitro potency was assessed on multiple cancer cell lines: SK-BR-3 (breast cancer), SKOV-3 (ovarian cancer), Calu-3 (lung cancer), ZR-75-1 (breast cancer) and MDA-MB-468 (breast cancer). Serial dilutions of camptothecin analogues were prepared in RPMI 1640+10% FBS, and 20 μL of each dilution was added to 384-well plates. Cells cultured in log-phase growth were detached by brief incubation in 0.05% Trypsin and resuspended in respective culturing media at 20,000 cells/mL (with the exception of ZR-75 cells, which were resuspended at 10,000 cells/mL). 50 μL of cell suspension was then added to the plates containing test articles. Cells were incubated with test articles for 4 d at 37° C. (with the exception of ZR-75 cells, which were incubated for 5 d). Growth inhibition was assessed by CellTiter-Glo® (Promega Corporation, Madison, WI) and luminescence was measured on a plate reader. IC50 values were determined by GraphPad Prism (GraphPad Software, San Diego CA).

For another experiment, the system named is Calu-3 (lung cancer). The conditions noted are these: Homo sapiens, Calu-3, 96 h, read-out: pIC50 Calu-3 (converted). The procedure: as §1, §2
A further experiment relates to SK-BR-3 (breast cancer). The following applies: Homo sapiens, SK-BR-3, 96 h, read-out: pIC50 SKBR-3 (converted). The procedure: as §1, §2
Another experiment deals with ZR-75-1 (breast cancer). The following applies: Homo sapiens, ZR-75-1, 120 h, read-out: pIC50 ZR-75 (converted). The procedure: as §1, §2
The subject of another experiment is SKOV-3 (ovarian cancer). The following applies: Homo sapiens, SK-OV-3, 96 h, read-out: pIC50 SKOV-3 (converted). The procedure: as §1, §2

Turning to `CC[C@@]1(O)C(=O)OCc2c1cc1n(c2=O)Cc2c-1nc1cc(F)c(C)cc1c2CN1CCNCC1` [Compound 112, (S)-4-ethyl-8-fluoro-4-hydroxy-9-methyl-11-(piperazin-1-ylmethyl)-1,12-dihydro-14H-pyrano[3′,4′:6,7]indolizino[1,2-b]quinoline-3,14(4H)-dione], the IC50 is 13.5 nM in experiment [1] (4 d incubation); 17.4 nM with Calu-3 (lung cancer) (4 d incubation); 6.61 nM with SK-BR-3 (breast cancer) (4 d incubation); 12 nM in the experiment with ZR-75-1 (breast cancer) (5 d incubation); 20 nM with SKOV-3 (ovarian cancer) (4 d incubation).
For the compound `CC[C@@]1(O)C(=O)OCc2c1cc1n(c2=O)Cc2c-1nc1cc(F)c(C)cc1c2CN1CCO[C@@H](CO)C1` [Compound 113, (S)-4-ethyl-8-fluoro-4-hydroxy-11-(((R)-2-(hydroxymethyl)morpholino)methyl)-9-methyl-1,12-dihydro-14H-pyrano[3′,4′:6,7]indolizino[1,2-b]quinoline-3,14(4H)-dione], the IC50 in experiment [1] was 3.39 nM; in the experiment on Calu-3 (lung cancer) it was 3.02 nM; in the experiment with SK-BR-3 (breast cancer) it was 1.95 nM; in the experiment with ZR-75-1 (breast cancer) it was 2.19 nM; in the experiment with SKOV-3 (ovarian cancer), 4.27 nM.
As for `CC[C@@]1(O)C(=O)OCc2c1cc1n(c2=O)Cc2c-1nc1cc(F)c(C)cc1c2CNS(C)(=O)=O` [Compound 122, (S)—N-((4-ethyl-8-fluoro-4-hydroxy-9-methyl-3,14-dioxo-3,4,12,14-tetrahydro-1H-pyrano[3′,4′:6,7]indolizino[1,2-b]quinolin-11-yl)methyl)methanesulfonamide], the IC50 is 1.1 nM in experiment [1]; 3.72 nM with Calu-3 (lung cancer); 1.12 nM in the experiment on SK-BR-3 (breast cancer); 1.29 nM in the experiment with ZR-75-1 (breast cancer); 9.12 nM with SKOV-3 (ovarian cancer).
Take `CC[C@@]1(O)C(=O)OCc2c1cc1n(c2=O)Cc2c-1nc1cc(F)c(OC)cc1c2CNS(C)(=O)=O` [Compound 123, (S)—N-((4-ethyl-8-fluoro-4-hydroxy-9-methoxy-3,14-dioxo-3,4,12,14-tetrahydro-1H-pyrano[3′,4′:6,7]indolizino[1,2-b]quinolin-11-yl)methyl)methanesulfonamide]: the IC50 is 2 nM in experiment [1] (4 d incubation); 3.72 nM with Calu-3 (lung cancer) (4 d incubation); 1.91 nM in the experiment with SK-BR-3 (breast cancer) (4 d incubation); 2.45 nM in the experiment on ZR-75-1 (breast cancer) (5 d incubation); 19.5 nM in the experiment on SKOV-3 (ovarian cancer) (4 d incubation).
For `CC[C@@]1(O)C(=O)OCc2c1cc1n(c2=O)Cc2c-1nc1cc(F)c(C)cc1c2CNS(=O)(=O)c1ccccc1` [Compound 125, (S)—N-((4-ethyl-8-fluoro-4-hydroxy-9-methyl-3,14-dioxo-3,4,12,14-tetrahydro-1H-pyrano[3′,4′:6,7]indolizino[1,2-b]quinolin-11-yl)methyl)benzenesulfonamide], the IC50 in experiment [1] is 3.8 nM; with Calu-3 (lung cancer), 2.82 nM; with SK-BR-3 (breast cancer), 1.32 nM; with ZR-75-1 (breast cancer), 1.32 nM; in the experiment with SKOV-3 (ovarian cancer) it was 7.08 nM.
For the compound `CC[C@@]1(O)C(=O)OCc2c1cc1n(c2=O)Cc2c-1nc1cc(F)c(OC)cc1c2CNS(=O)(=O)c1ccccc1` [Compound 126, (S)—N-((4-ethyl-8-fluoro-4-hydroxy-9-methoxy-3,14-dioxo-3,4,12,14-tetrahydro-1H-pyrano[3′,4′:6,7]indolizino[1,2-b]quinolin-11-yl)methyl)benzenesulfonamide], the IC50 is 1.95 nM in experiment [1] (4 d incubation); 2.95 nM in the experiment on Calu-3 (lung cancer) (4 d incubation); 1.1 nM with SK-BR-3 (breast cancer) (4 d incubation); 0.724 nM with ZR-75-1 (breast cancer) (5 d incubation); 6.31 nM with SKOV-3 (ovarian cancer) (4 d incubation).
Consider `CC[C@@]1(O)C(=O)OCc2c1cc1n(c2=O)Cc2c-1nc1cc(F)c(C)cc1c2CNS(=O)(=O)c1ccc(N)cc1` [Compound 127, (S)-4-amino-N-((4-ethyl-8-fluoro-4-hydroxy-9-methyl-3,14-dioxo-3,4,12,14-tetrahydro-1H-pyrano[3′,4′:6,7]indolizino[1,2-b]quinolin-11-yl)methyl)benzenesulfonamide], for which the IC50 in experiment [1] was 3.8 nM; in the experiment on Calu-3 (lung cancer), 9.33 nM; with SK-BR-3 (breast cancer) it was 3.31 nM; in the experiment with ZR-75-1 (breast cancer), 5.25 nM; in the experiment with SKOV-3 (ovarian cancer), 14.5 nM.
As to `CC[C@@]1(O)C(=O)OCc2c1cc1n(c2=O)Cc2c-1nc1cc(F)c(C)cc1c2CNS(=O)(=O)CCO` [Compound 129, (S)—N-((4-ethyl-8-fluoro-4-hydroxy-9-methyl-3,14-dioxo-3,4,12,14-tetrahydro-1H-pyrano[3′,4′:6,7]indolizino[1,2-b]quinolin-11-yl)methyl)-2-hydroxyethane-1-sulfonamide], the IC50 in experiment [1] (4 d incubation) was 3.98 nM; with Calu-3 (lung cancer) (4 d incubation), 5.25 nM; in the experiment with SK-BR-3 (breast cancer) (4 d incubation), 3.09 nM; in the experiment with ZR-75-1 (breast cancer) (5 d incubation), 2.63 nM; in the experiment with SKOV-3 (ovarian cancer) (4 d incubation) it was 20.4 nM.
In the same order, the values of `CC[C@@]1(O)C(=O)OCc2c1cc1n(c2=O)Cc2c-1nc1cc(F)c(C)cc1c2CNC(=O)NC` [Compound 132, (S)-1-((4-ethyl-8-fluoro-4-hydroxy-9-methyl-3,14-dioxo-3,4,12,14-tetrahydro-1H-pyrano[3′,4′:6,7]indolizino[1,2-b]quinolin-11-yl)methyl)-3-methylurea] are 26.9 nM, 51.3 nM, 22.9 nM, 15.5 nM and 105 nM.
In the same order, the values of `CC[C@@]1(O)C(=O)OCc2c1cc1n(c2=O)Cc2c-1nc1cc(F)c(OC)cc1c2CNC(=O)NC` [Compound 133, (S)-1-((4-ethyl-8-fluoro-4-hydroxy-9-methoxy-3,14-dioxo-3,4,12,14-tetrahydro-1H-pyrano[3′,4′:6,7]indolizino[1,2-b]quinolin-11-yl)methyl)-3-methylurea] are 10.7 nM, 12 nM, 6.76 nM, 9.77 nM and 74.1 nM.
In the same order, the values of `CC[C@@]1(O)C(=O)OCc2c1cc1n(c2=O)Cc2c-1nc1cc(F)c(C)cc1c2CNC(=O)NCc1ccc(N)cc1` [Compound 134, (S)-1-(4-aminobenzyl)-3-((4-ethyl-8-fluoro-4-hydroxy-9-methyl-3,14-dioxo-3,4,12,14-tetrahydro-1H-pyrano[3′,4′:6,7]indolizino[1,2-b]quinolin-11-yl)methyl)urea] are 11.5 nM, 24.5 nM, 9.55 nM, 12 nM and 77.6 nM.
Take `CC[C@@]1(O)C(=O)OCc2c1cc1n(c2=O)Cc2c-1nc1cc(F)c(C)cc1c2CNC(=O)NCCO` [Compound 136, (S)-1-((4-ethyl-8-fluoro-4-hydroxy-9-methyl-3,14-dioxo-3,4,12,14-tetrahydro-1H-pyrano[3′,4′:6,7]indolizino[1,2-b]quinolin-11-yl)methyl)-3-(2-hydroxyethyl)urea]: the IC50 in experiment [1] (4 d incubation) is 6.31 nM; in the experiment with Calu-3 (lung cancer) (4 d incubation), 26.3 nM; with SK-BR-3 (breast cancer) (4 d incubation) it was 3.98 nM; in the experiment with ZR-75-1 (breast cancer) (5 d incubation), 5.01 nM; in the experiment on SKOV-3 (ovarian cancer) (4 d incubation), 51.3 nM.
In the same order, the values of `CC[C@@]1(O)C(=O)OCc2c1cc1n(c2=O)Cc2c-1nc1cc(F)c(C)cc1c2CNC(=O)OC` [Compound 138, Methyl-(S)-((4-ethyl-8-fluoro-4-hydroxy-9-methyl-3,14-dioxo-3,4,12,14-tetrahydro-1H-pyrano[3′,4′:6,7]indolizino[1,2-b]quinolin-11-yl)methyl)carbamate] are 0.871 nM, 0.389 nM, 0.479 nM, 0.195 nM and 0.617 nM.
In the same order, the values of `CC[C@@]1(O)C(=O)OCc2c1cc1n(c2=O)Cc2c-1nc1cc(F)c(C)cc1c2CNC(=O)OCCO` [Compound 139, 2-hydroxyethyl (S)-((4-ethyl-8-fluoro-4-hydroxy-9-methyl-3,14-dioxo-3,4,12,14-tetrahydro-1H-pyrano[3′,4′:6,7]indolizino[1,2-b]quinolin-11-yl)methyl)carbamate] are 1.51 nM, 7.08 nM, 1.2 nM, 1.07 nM and 5.01 nM.
In the same order, the values of `CC[C@@]1(O)C(=O)OCc2c1cc1n(c2=O)Cc2cc3cc(N)c(F)cc3nc2-1` [Compound 140, (S)-9-amino-4-ethyl-8-fluoro-4-hydroxy-1,12-dihydro-14H-pyrano[3′,4′:6,7]indolizino [1,2-b]quinoline-3,14(4H)-dione] are 0.708 nM, 0.309 nM, 0.316 nM, 0.331 nM and 0.457 nM.
